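1) Cells in 96-well plates. 2) Compound, 48 h, 5 concentrations. 3) Linear interpolation between surrounding doses. 4) Unreached endpoint = highest concentration. GI50: concentration for 50% inhibition of growth.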 Active and inactive are the calls of the source. No stated cut-off is given here; in the data, active = GI50 up to about 1.1 µM and inactive = higher.
Assays:
Experiment in all cases: NCI tumour cell line growth inhibition, 48 h
SNB-75 = system: SNB-75
EKVX = system: EKVX
NCI-H226 = system: NCI-H226
BT-549 = system: BT-549
OVCAR-5 = system: OVCAR-5
COLO 205 = system: COLO 205
U-251 = system: U-251
MOLT-4 = system: MOLT-4
SNB-19 = system: SNB-19
SK-MEL-5 = system: SK-MEL-5
UO-31 = system: UO-31
HCT-15 = system: HCT-15
NCI-H460 = system: NCI-H460
SF-295 = system: SF-295
SK-MEL-28 = system: SK-MEL-28
UACC-257 = system: UACC-257
KM12 = system: KM12
IGROV-1 = system: IGROV-1
SW-620 = system: SW-620
RPMI-8226 = system: RPMI-8226
786-0 = system: 786-0
HOP-62 = system: HOP-62
SF-539 = system: SF-539
OVCAR-3 = system: OVCAR-3
SK-OV-3 = system: SK-OV-3
MDA-N = system: MDA-N
HOP-92 = system: HOP-92
M14 = system: M14
OVCAR-4 = system: OVCAR-4
Malme-3M = system: Malme-3M
NCI-H23 = system: NCI-H23
RXF 393 = system: RXF 393
A549 = system: A549
DU-145 = system: DU-145
NCI/ADR-RES = system: NCI/ADR-RES
MDA-MB-435 = system: MDA-MB-435
A498 = system: A498
CAKI-1 = system: CAKI-1
HCT-116 = system: HCT-116
SF-268 = system: SF-268
SN12C = system: SN12C
HT-29 = system: HT-29
LOX IMVI = system: LOX IMVI
OVCAR-8 = system: OVCAR-8
NCI-H522 = system: NCI-H522
MDA-MB-231 = system: MDA-MB-231
ACHN = system: ACHN
T47D = system: T47D
TK-10 = system: TK-10
MCF7 = system: MCF7
K562 = system: K562
SK-MEL-2 = system: SK-MEL-2
HL-60 = system: HL-60
PC-3 = system: PC-3
HCC 2998 = system: HCC 2998
CCRF-CEM = system: CCRF-CEM
Hs-578T = system: Hs-578T
UACC-62 = system: UACC-62
SR = system: SR

Cn1c(C(C#N)c2cc(Cl)ncn2)nc2ccccc21 (stereo not given)
GI50 (SNB-75): > 100 µM (inactive)
GI50 (EKVX): > 100 µM (inactive)
GI50 (NCI-H226): > 100 µM (inactive)
GI50 (BT-549): > 100 µM (inactive)
GI50 (OVCAR-5): > 100 µM (inactive)
GI50 (COLO 205): > 100 µM (inactive)
GI50 (U-251): > 100 µM (inactive)
GI50 (MOLT-4): > 100 µM (inactive)
GI50 (SNB-19): > 100 µM (inactive)
GI50 (SK-MEL-5): > 100 µM (inactive)
GI50 (UO-31): > 100 µM (inactive)
GI50 (HCT-15): > 100 µM
GI50 (NCI-H460): > 100 µM (inactive)
GI50 (SF-295): > 100 µM (inactive)
GI50 (SK-MEL-28): > 100 µM (inactive)
GI50 (UACC-257): > 100 µM (inactive)
GI50 (KM12): > 100 µM (inactive)
GI50 (IGROV-1): > 100 µM (inactive)
GI50 (SW-620): > 100 µM (inactive)
GI50 (RPMI-8226): > 100 µM (inactive)
GI50 (786-0): > 100 µM (inactive)
GI50 (HOP-62): > 100 µM (inactive)
GI50 (SF-539): > 100 µM (inactive)
GI50 (OVCAR-3): > 100 µM (inactive)
GI50 (SK-OV-3): > 100 µM (inactive)
GI50 (MDA-N): > 100 µM (inactive)
GI50 (HOP-92): > 100 µM (inactive)
GI50 (M14): > 100 µM (inactive)
GI50 (OVCAR-4): > 100 µM (inactive)
GI50 (Malme-3M): > 100 µM (inactive)
GI50 (NCI-H23): > 100 µM (inactive)
GI50 (RXF 393): > 100 µM (inactive)
GI50 (A549): > 100 µM (inactive)
GI50 (DU-145): > 100 µM (inactive)
GI50 (NCI/ADR-RES): > 100 µM (inactive)
GI50 (MDA-MB-435): > 100 µM (inactive)
GI50 (A498): > 100 µM (inactive)
GI50 (CAKI-1): > 100 µM (inactive)
GI50 (HCT-116): > 100 µM (inactive)
GI50 (SF-268): > 100 µM (inactive)
GI50 (SN12C): > 100 µM (inactive)
GI50 (HT-29): > 100 µM (inactive)
GI50 (LOX IMVI): > 100 µM (inactive)
GI50 (OVCAR-8): > 100 µM (inactive)
GI50 (NCI-H522): > 100 µM (inactive)
GI50 (MDA-MB-231): > 100 µM (inactive)
GI50 (ACHN): > 100 µM (inactive)
GI50 (T47D): > 100 µM (inactive)
GI50 (TK-10): > 100 µM (inactive)

CCOc1ccc(NC(=O)/C(=N\NC(C)(C)C)C2C(=O)Nc3ccccc3[S+]2[O-])cc1 (stereo not given)
GI50 (MCF7): > 100 µM (inactive)
GI50 (SNB-75): > 100 µM (inactive)
GI50 (EKVX): > 100 µM (inactive)
GI50 (NCI-H226): > 100 µM (inactive)
GI50 (BT-549): > 100 µM (inactive)
GI50 (K562): > 100 µM (inactive)
GI50 (OVCAR-5): > 100 µM (inactive)
GI50 (COLO 205): > 100 µM (inactive)
GI50 (U-251): > 100 µM (inactive)
GI50 (MOLT-4): > 100 µM (inactive)
GI50 (SNB-19): > 100 µM (inactive)
GI50 (SK-MEL-5): > 100 µM (inactive)
GI50 (UO-31): > 100 µM (inactive)
GI50 (HCT-15): > 100 µM
GI50 (NCI-H460): > 100 µM (inactive)
GI50 (SF-295): > 100 µM (inactive)
GI50 (SK-MEL-28): > 100 µM (inactive)
GI50 (UACC-257): > 100 µM (inactive)
GI50 (KM12): > 100 µM (inactive)
GI50 (IGROV-1): > 100 µM (inactive)
GI50 (SW-620): > 100 µM (inactive)
GI50 (RPMI-8226): 20.7 µM (inactive)
GI50 (786-0): > 100 µM (inactive)
GI50 (HOP-62): > 100 µM (inactive)
GI50 (SF-539): > 100 µM (inactive)
GI50 (OVCAR-3): > 100 µM (inactive)
GI50 (SK-OV-3): > 100 µM (inactive)
GI50 (MDA-N): > 100 µM (inactive)
GI50 (HOP-92): > 100 µM (inactive)
GI50 (SK-MEL-2): > 100 µM (inactive)
GI50 (M14): > 100 µM (inactive)
GI50 (OVCAR-4): > 100 µM (inactive)
GI50 (Malme-3M): > 100 µM (inactive)
GI50 (NCI-H23): > 100 µM (inactive)
GI50 (HL-60): > 100 µM (inactive)
GI50 (RXF 393): > 100 µM (inactive)
GI50 (A549): > 100 µM (inactive)
GI50 (DU-145): > 100 µM (inactive)
GI50 (NCI/ADR-RES): > 100 µM (inactive)
GI50 (MDA-MB-435): > 100 µM (inactive)
GI50 (A498): > 100 µM (inactive)
GI50 (PC-3): > 100 µM (inactive)
GI50 (HCC 2998): > 100 µM (inactive)
GI50 (HCT-116): > 100 µM (inactive)
GI50 (SF-268): > 100 µM (inactive)
GI50 (CCRF-CEM): 94.6 µM (inactive)
GI50 (Hs-578T): > 100 µM (inactive)
GI50 (SN12C): > 100 µM (inactive)
GI50 (HT-29): > 100 µM (inactive)
GI50 (OVCAR-8): > 100 µM (inactive)
GI50 (UACC-62): > 100 µM (inactive)
GI50 (NCI-H522): > 100 µM (inactive)
GI50 (ACHN): > 100 µM (inactive)
GI50 (T47D): > 100 µM (inactive)
GI50 (TK-10): > 100 µM (inactive)
GI50 (SR): 45.1 µM (inactive)

Source: ChEMBL document CHEMBL1201862, “PubChem BioAssay data set” (2004)
